Data: Sander's compilation of Henry's law constants (doi:10.1021/je3010535)

Assay: Henry solubility constant Hcp at 298.15 K (mol/(m3 Pa))
Conditions: reference: Hiatt (2013)

| Compound | Henry solubility constant Hcp |
| --- | --- |
| C[13C](C)=O [propanone-2-13C] | 0.31 |
| [2H]c1c([2H])c([2H])c2c(C([2H])([2H])[2H])c([2H])c([2H])c([2H])c2c1[2H] [1-methylnaphthalene-d10] | 0.046 |
| ClCC(Br)CBr (stereo unspecified) [1,2-dibromo-3-chloropropane] | 0.097 |
| C=Cc1ccccc1 [ethenylbenzene] | 0.0044 |
| COCCO [2-methoxyethanol] | 4.4 |
| [2H]c1c([2H])c([2H])c([2H])c([2H])c1[2H] [benzene-d6] | 0.0018 |
| ClC/C=C\CCl [(Z)-1,4-dichloro-2-butene] | 0.03 |
| ClC(Cl)C(Cl)(Cl)Cl [pentachloroethane] | 0.0059 |
| Cc1ccc(C(C)C)cc1 [1-methyl-4-(1-methylethyl)-benzene] | 0.0018 |
| ClCCCCl [1,3-dichloropropane] | 0.013 |
| CCCCc1ccccc1 [butylbenzene] | 0.002 |
| O=[N+]([O-])c1ccccc1 [nitrobenzene] | 0.64 |
| BrC(Br)Br [tribromomethane] | 0.022 |
| [2H]C([2H])([2H])C(=O)C([2H])([2H])CCC [2-hexanone-1,1,1,3,3-d5] | 0.17 |
| CC(=O)c1ccccc1 [1-phenylethanone] | 0.97 |
| CCCCC(C)CO (stereo unspecified) [2-methyl-1-hexanol] | 0.69 |
| c1ccccc1 [benzene] | 0.0018 |
| [2H]C([2H])(O)C([2H])([2H])Cl [2-chloroethanol-d4] | 5 |
| Clc1cccc(Cl)c1 [1,3-dichlorobenzene] | 0.0052 |
| S=C=S [carbon disulfide] | 0.00057 |
| Brc1ccccc1 [bromobenzene] | 0.006 |

| Compound | Henry solubility constant Hcp |
| --- | --- |
| CC(Cl)(Cl)Cl [1,1,1-trichloroethane] | 0.00069 |
| Fc1c(F)c(F)c(F)c(F)c1F [hexafluorobenzene] | 0.00055 |
| ClCBr [bromochloromethane] | 0.0066 |
| [2H]C([2H])([2H])C([2H])(Cl)C([2H])([2H])Cl (stereo unspecified) [1,2-dichloropropane-d6] | 0.0036 |
| Cl/C=C/CCl [trans-1,3-dichloropropene] | 0.0058 |
| ClCCl [dichloromethane] | 0.004 |
| [2H]C([2H])(Cl)C([2H])(Cl)Cl [1,1,2-trichloroethane-d3] | 0.013 |
| CC(C)c1ccccc1 [(2-propyl)-benzene] | 0.0014 |
| Fc1ccccc1 [fluorobenzene] | 0.0016 |
| [2H]c1c([2H])c([2H])c(Br)c([2H])c1[2H] [bromobenzene-d5] | 0.0065 |
| ClC(Cl)=C(Cl)C(Cl)=C(Cl)Cl [hexachlorobutadiene] | 0.0023 |
| C=CCCl [3-chloro-1-propene] | 0.0013 |
| ClC(Cl)C(Cl)Cl [1,1,2,2-tetrachloroethane] | 0.033 |
| CC(C)O [2-propanol] | 1.1 |
| Clc1cccc(Cl)c1Cl [1,2,3-trichlorobenzene] | 0.015 |
| [2H]c1c([2H])c([2H])c(Cl)c([2H])c1[2H] [chlorobenzene-d5] | 0.0036 |
| ClC(Cl)=C(Cl)Cl [tetrachloroethene] | 0.00099 |
| [2H]c1c([2H])c(Cl)c(Cl)c(Cl)c1[2H] [1,2,3-trichlorobenzene-d3] | 0.015 |
| CC(C)(C)c1ccccc1 [(1,1-dimethylethyl)-benzene] | 0.0016 |
| CCCl [chloroethane] | 0.00085 |
| Cc1ccc2ccccc2c1 [2-methylnaphthalene] | 0.035 |

| Compound | Henry solubility constant Hcp |
| --- | --- |
| Fc1ccc(Br)cc1 [1-bromo-4-fluorobenzene] | 0.0053 |
| Fc1c(F)c(F)c(-c2c(F)c(F)c(F)c(F)c2F)c(F)c1F [decafluorobiphenyl] | 0.0067 |
| C=CC#N [2-propenenitrile] | 0.12 |
| [2H]C([2H])([2H])C([2H])([2H])OC([2H])([2H])C([2H])([2H])[2H] [diethyl ether-d10] | 0.013 |
| ClC(Cl)(Cl)Cl [tetrachloromethane] | 0.0005 |
| CCCCC(C)=O [2-hexanone] | 0.15 |
| [2H]c1c([2H])c([2H])c2c([2H])c([2H])c([2H])c([2H])c2c1[2H] [naphthalene-d8] | 0.035 |
| ClCC(Cl)(Cl)Cl [1,1,1,2-tetrachloroethane] | 0.0048 |
| [2H]c1c([2H])c([2H])c(C([2H])([2H])[2H])c([2H])c1[2H] [methylbenzene-d8] | 0.002 |
| Clc1ccccc1 [chlorobenzene] | 0.0037 |
| C=CCl [chloroethene] | 0.00039 |
| [2H]c1c([2H])c([2H])c([N+](=O)[O-])c([2H])c1[2H] [nitrobenzene-d5] | 0.85 |
| [2H]c1c([2H])c([2H])c(C(C)=O)c([2H])c1[2H] [1-phenylethanone-d5] | 2.3 |
| FC(F)(Cl)Cl [dichlorodifluoromethane] | 0.00013 |
| Cc1cc(C(C)(C)C)cc(C(C)(C)C)c1 [3,5-di-tert-butyltoluene] | 0.0037 |
| C1CCCCC1 [cyclohexane] | 0.00032 |
| Cc1ccccc1C [1,2-dimethylbenzene] | 0.0032 |
| CCCc1ccccc1 [propylbenzene] | 0.0019 |
| CCOCC [diethyl ether] | 0.011 |
